Patent US11071300B2, “Pesticidally active pyrazole derivatives” (SYNGENTA PARTICIPATIONS AG, priority 2017, dated 2021)

What was measured:
Type in all cases: in vivo
[1] = test system: Euschistus heros; test: Euschistus heros (neotropical brown stink bug) soybean leaf test; conditions: 120 h, application rate 200 ppm, soybean leaves sprayed, N2 nymphs, 5 days after infestation, read-out: control (mortality and growth inhibition)
Procedure: Euschistus heros (Neotropical Brown Stink Bug):
Soybean leaves on agar in 24-well microtiter plates were sprayed with aqueous test solutions prepared from 10′000 ppm DMSO stock solutions. After drying the leaves were infested with N2 nymphs. The samples were assessed for mortality and growth inhibition in comparison to untreated samples 5 days after infestation.

[2] = test system: Plutella xylostella; test: Plutella xylostella (diamond back moth) artificial diet test; conditions: 120 h, application rate 200 ppm, artificial diet, L2 larvae, 5 days after infestation, read-out: control (mortality and growth inhibition)
Procedure: Plutella xylostella (Diamond Back Moth):
24-well microtiter plates with artificial diet were treated with aqueous test solutions prepared from 10′000 ppm DMSO stock solutions by pipetting. After drying, the plates were infested with L2 larvae (10 to 15 per well). The samples were assessed for mortality and growth inhibition in comparison to untreated samples 5 days after infestation.

[3] = test system: Spodoptera littoralis; test: Spodoptera littoralis (Egyptian cotton leaf worm) leaf disc test; conditions: foliar, 72 h, application rate 200 ppm, cotton leaf discs sprayed, L1 larvae, 3 days after infestation, read-out: control (at least one of mortality, anti-feedant effect, growth inhibition)
In short: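 Five first-instar larvae per disc were placed on dried, sprayed cotton leaf discs held on agar. Test solutions were aqueous, made from 10′000 ppm DMSO stocks. At day 3, control was counted when mortality, feeding deterrence or growth inhibition exceeded the untreated discs.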

[4] = test system: Myzus persicae; test: Myzus persicae (green peach aphid) leaf disc test; conditions: foliar, 144 h, application rate 200 ppm, sunflower leaf discs sprayed, mixed ages, 6 DAT, read-out: control (mortality)
Procedure: Myzus persicae (Green Peach Aphid):
Sunflower leaf discs were placed on agar in a 24-well microtiter plate and sprayed with test solutions at an application rate of 200 ppm. After drying, the leaf discs were infested with an aphid population of mixed ages. After an incubation period of 6 DAT, samples were checked for mortality.

[5] = test system: Diabrotica Balteata; test: Diabrotica balteata (corn root worm) maize sprout test; conditions: 96 h, application rate 200 ppm, maize sprouts sprayed, L2 larvae, 4 days after infestation, read-out: control (mortality and growth inhibition)
Procedure: Diabrotica Balteata, (Corn Root Worm)
Maize sprouts, placed on an agar layer in 24-well microtiter plates were treated with aqueous test solutions prepared from 10′000 ppm DMSO stock solutions by spraying. After drying, the plates were infested with L2 larvae (6 to 10 per well). The samples were assessed for mortality and growth inhibition in comparison to untreated samples 4 days after infestation.

[6] = test system: Thrips tabaci; test: Thrips tabaci (onion thrips) leaf disc test; conditions: foliar, 144 h, application rate 200 ppm, sunflower leaf discs sprayed, mixed ages, 6 days after infestation, read-out: control (mortality)
Procedure: Thrips tabaci (Onion Thrips):
Sunflower leaf discs were placed on agar in 24-well microtiter plates and sprayed with aqueous test solutions prepared from 10′000 ppm DMSO stock solutions. After drying the leaf discs were infested with a thrips population of mixed ages. The samples were assessed for mortality 6 days after infestation.

[7] = test system: Tetranychus urticae; test: Tetranychus urticae (two-spotted spider mite) leaf disc test; conditions: foliar, 192 h, application rate 200 ppm, bean leaf discs sprayed, 8 days after infestation, read-out: control (mortality on mixed population, mobile stages)
Procedure: Tetranychus urticae (Two-Spotted Spider Mite):
Bean leaf discs on agar in 24-well microtiter plates were sprayed with aqueous test solutions prepared from 10′000 ppm DMSO stock solutions. After drying the leaf discs were infested with a mite population of mixed ages. The samples were assessed for mortality on mixed population (mobile stages) 8 days after infestation.

CN(C(=O)c1cc(-c2cnn(-c3c(C(F)(F)F)c(OS(=O)(=O)C(F)(C(F)(F)F)C(F)(F)F)nn3C)c2)cnc1Cl)C1(C#N)CC1 [Compound 25, [5-[4-[6-chloro-5-[(1-cyanocyclopropyl)-methyl-carbamoyl]-3-pyridyl]pyrazol-1-yl]-1-methyl-4-(trifluoromethyl)pyrazol-3-yl] 1,1,1,2,3,3,3-heptafluoropropane-2-sulfonate]
≥ 80%: mortality at 200 ppm [1] | mortality at 200 ppm [2] | percent control (mortality, anti-feedant effect or growth inhibition) at 200 ppm [3] | mortality at 200 ppm [4] | mortality at 200 ppm [5] | mortality at 200 ppm [6] | mortality at 200 ppm [7]

CCC(=O)N(C(=O)c1cc(-c2cnn(-c3c(C(F)(F)F)c(OS(=O)(=O)C(F)(C(F)(F)F)C(F)(F)F)nn3C)c2)ccc1Cl)C1(C#N)CC1 [Compound 54, [5-[4-[4-chloro-3-[(1-cyanocyclopropyl)-propanoyl-carbamoyl]phenyl]pyrazol-1-yl]-1-methyl-4-(trifluoromethyl)pyrazol-3-yl] 1,1,1,2,3,3,3-heptafluoropropane-2-sulfonate]
≥ 80%: mortality at 200 ppm [1] | mortality at 200 ppm [2] | percent control (mortality, anti-feedant effect or growth inhibition) at 200 ppm [3] | mortality at 200 ppm [4] | mortality at 200 ppm [5] | mortality at 200 ppm [6] | mortality at 200 ppm [7]

CN(C(=O)c1cc(-c2cnn(-c3c(C(F)(F)F)c(OS(=O)(=O)C(F)(C(F)(F)F)C(F)(F)F)nn3C)c2)ccc1Cl)C1(C#N)CC1 [Compound 18, [5-[4-[4-chloro-3-[(1-cyanocyclopropyl)-methyl-carbamoyl]phenyl]pyrazol-1-yl]-1-methyl-4-(trifluoromethyl)pyrazol-3-yl] 1,1,1,2,3,3,3-heptafluoropropane-2-sulfonate]
≥ 80%: mortality at 200 ppm [1] | mortality at 200 ppm [2] | percent control (mortality, anti-feedant effect or growth inhibition) at 200 ppm [3] | mortality at 200 ppm [4] | mortality at 200 ppm [5] | mortality at 200 ppm [6] | mortality at 200 ppm [7]

Cn1nc(OS(=O)(=O)C(F)(F)C(F)(F)Cl)c(C(F)(F)F)c1-n1cc(-c2ccc(Cl)c(C(=O)NC3CC3)c2)cn1 [Compound 9, [5-[4-[4-chloro-3-(cyclopropylcarbamoyl)phenyl]pyrazol-1-yl]-1-methyl-4-(trifluoromethyl)pyrazol-3-yl] 2-chloro-1,1,2,2-tetrafluoro-ethanesulfonate]
≥ 80%: mortality at 200 ppm [1] | mortality at 200 ppm [2] | percent control (mortality, anti-feedant effect or growth inhibition) at 200 ppm [3] | mortality at 200 ppm [4] | mortality at 200 ppm [5] | mortality at 200 ppm [6] | mortality at 200 ppm [7]

CC(=O)N(C(=O)c1cc(-c2cnn(-c3c(C(F)(F)F)c(OS(=O)(=O)C(F)(C(F)(F)F)C(F)(F)F)nn3C)c2)ccc1Cl)C1(C#N)CC1 [Compound 46, [5-[4-[3-[acetyl-(1-cyanocyclopropyl)carbamoyl]-4-chloro-phenyl]pyrazol-1-yl]-1-methyl-4-(trifluoromethyl)pyrazol-3-yl] 1,1,1,2,3,3,3-heptafluoropropane-2-sulfonate]
≥ 80%: mortality at 200 ppm [1] | mortality at 200 ppm [2] | percent control (mortality, anti-feedant effect or growth inhibition) at 200 ppm [3] | mortality at 200 ppm [4] | mortality at 200 ppm [5] | mortality at 200 ppm [6] | mortality at 200 ppm [7]

CN(C(=O)c1cc(-c2cc(-c3c(C(F)(F)F)c(OS(=O)(=O)C(F)(C(F)(F)F)C(F)(F)F)nn3C)no2)ccc1Cl)C1CC1 [Compound 34, [5-[5-[4-chloro-3-[cyclopropyl(methyl)carbamoyl]phenyl]isoxazol-3-yl]-1-methyl-4-(trifluoromethyl)pyrazol-3-yl] 1,1,1,2,3,3,3-heptafluoropropane-2-sulfonate]
≥ 80%: mortality at 200 ppm [1] | mortality at 200 ppm [2] | percent control (mortality, anti-feedant effect or growth inhibition) at 200 ppm [3] | mortality at 200 ppm [4] | mortality at 200 ppm [5] | mortality at 200 ppm [6] | mortality at 200 ppm [7]

Cn1nc(OS(=O)(=O)C(F)(C(F)(F)F)C(F)(F)F)c(C(F)(F)F)c1-n1cc(-c2ccc(Cl)c(C(=O)NC3CC3)c2)cn1 [Compound 5, [5-[4-[4-chloro-3-(cyclopropylcarbamoyl)phenyl]pyrazol-1-yl]-1-methyl-4-(trifluoromethyl)pyrazol-3-yl] 1,1,1,2,3,3,3-heptafluoropropane-2-sulfonate]
≥ 80%: mortality at 200 ppm [1] | mortality at 200 ppm [2] | percent control (mortality, anti-feedant effect or growth inhibition) at 200 ppm [3] | mortality at 200 ppm [4] | mortality at 200 ppm [5] | mortality at 200 ppm [6] | mortality at 200 ppm [7]

CCN(C(=O)c1cc(-c2cc(-c3c(C(F)(F)F)c(OS(=O)(=O)C(F)(C(F)(F)F)C(F)(F)F)nn3C)no2)ccc1Cl)C1CC1 [Compound 35, [5-[5-[4-chloro-3-[cyclopropyl(ethyl)carbamoyl]phenyl]isoxazol-3-yl]-1-methyl-4-(trifluoromethyl)pyrazol-3-yl] 1,1,1,2,3,3,3-heptafluoropropane-2-sulfonate]
≥ 80%: mortality at 200 ppm [1] | mortality at 200 ppm [2] | percent control (mortality, anti-feedant effect or growth inhibition) at 200 ppm [3] | mortality at 200 ppm [4] | mortality at 200 ppm [5] | mortality at 200 ppm [6] | mortality at 200 ppm [7]

Cn1nc(OS(=O)(=O)C(F)(C(F)(F)F)C(F)(F)F)c(C(F)(F)F)c1-c1cc(-c2ccc(Cl)c(C(=O)NC3(C#N)CC3)c2)on1 [Compound 36, [5-[5-[4-chloro-3-[(1-cyanocyclopropyl)carbamoyl]phenyl]isoxazol-3-yl]-1-methyl-4-(trifluoromethyl)pyrazol-3-yl] 1,1,1,2,3,3,3-heptafluoropropane-2-sulfonate]
≥ 80%: mortality at 200 ppm [1] | mortality at 200 ppm [2] | percent control (mortality, anti-feedant effect or growth inhibition) at 200 ppm [3] | mortality at 200 ppm [4] | mortality at 200 ppm [5] | mortality at 200 ppm [6] | mortality at 200 ppm [7]

Cn1nc(OS(=O)(=O)C(F)(C(F)(F)F)C(F)(F)F)c(C(F)(F)F)c1-n1cc(-c2ccc(Cl)c(C(=O)N[C@H]3C[C@@H]3C#N)c2)cn1 (racemic) [Compound 69, (rac)-[5-[4-[4-chloro-3-[[(1S,2S)-2-cyanocyclopropyl]carbamoyl]phenyl]pyrazol-1-yl]-1-methyl-4-(trifluoromethyl)pyrazol-3-yl] 1,1,1,2,3,3,3-heptafluoropropane-2-sulfonate]
≥ 80%: mortality at 200 ppm [1] | mortality at 200 ppm [2] | percent control (mortality, anti-feedant effect or growth inhibition) at 200 ppm [3] | mortality at 200 ppm [4] | mortality at 200 ppm [7]
